Source: ChEMBL document CHEMBL3885881, “DrugMatrix”

Organism: Rattus norvegicus
Experiment: DrugMatrix - Regimen: Daily Repeat
Assay type: toxicity, organism-based, Sprague-Dawley
Set-up: regimen Daily Repeat, gender Male, age 6-8 weeks
Conditions: in vivo, iv, vehicle 100 % SALINE; for ABSOLUTE BASOPHIL / ABSOLUTE EOSINOPHIL / ABSOLUTE LYMPHOCYTE / ABSOLUTE MONOCYTE / ABSOLUTE SEGMENTED NEUTROPHIL / BASOPHIL / EOSINOPHIL / ERYTHROCYTE COUNT / HEMATOCRIT / HEMOGLOBIN / LEUKOCYTE COUNT / LYMPHOCYTE / MEAN CORPUSCULAR HEMOGLOBIN / MEAN CORPUSCULAR HEMOGLOBIN CONCENTRATION / MEAN CORPUSCULAR VOLUME / MONOCYTE / NEUTROPHIL / NUCLEATED RED BLOOD CELLS / PLATELET COUNT: tissue Blood; for ALANINE AMINOTRANSFERASE / ALBUMIN / ALKALINE PHOSPHATASE / ASPARTATE AMINOTRANSFERASE / BLOOD UREA NITROGEN / CARBON DIOXIDE / CHLORIDE / CHOLESTEROL / CREATINE PHOSPHOKINASE / CREATININE / GLUCOSE / LACTATE DEHYDROGENASE / LIPASE / PHOSPHORUS / POTASSIUM / SODIUM / TOTAL BILIRUBIN / TOTAL PROTEIN / URIC ACID: tissue Plasma
[1] = 0 mg/kg, 72 h, dose level Control, time 3 day
[2] = 0 mg/kg, 120 h, dose level Control, time 5 day
[3] = 0.05 mg/kg, 72 h, dose level Low, time 3 day
[4] = 0.05 mg/kg, 120 h, dose level Low, time 5 day

CC[C@]1(O)C[C@H]2CN(CCc3c([nH]c4ccccc34)[C@@](C(=O)OC)(c3cc4c(cc3OC)N(C=O)[C@H]3[C@@](O)(C(=O)OC)[C@H](OC(C)=O)[C@]5(CC)C=CCN6CC[C@]43[C@@H]65)C2)C1 [VINCRISTINE]
ABSOLUTE BASOPHIL [1]: 0 CELLS/uL | ABSOLUTE EOSINOPHIL [1]: 0 CELLS/uL | ABSOLUTE LYMPHOCYTE [1]: 7637.67 CELLS/uL | ABSOLUTE MONOCYTE [1]: 67.83 CELLS/uL | ABSOLUTE SEGMENTED NEUTROPHIL [1]: 661.17 CELLS/uL | BASOPHIL [1]: 0% | EOSINOPHIL [1]: 0% | ERYTHROCYTE COUNT [1]: 5.38 x10E6/uL | HEMATOCRIT [1]: 33.67% | HEMOGLOBIN [1]: 12.88 G/DL | LEUKOCYTE COUNT [1]: 8.37 x10E3/uL | LYMPHOCYTE [1]: 91.17% | MEAN CORPUSCULAR HEMOGLOBIN [1]: 23.95 pg | MEAN CORPUSCULAR HEMOGLOBIN CONCENTRATION [1]: 38.23 G/DL | MEAN CORPUSCULAR VOLUME [1]: 62.6 fL | MONOCYTE [1]: 0.83% | NEUTROPHIL [1]: 8% | NUCLEATED RED BLOOD CELLS [1]: 0.17 /100WBC | PLATELET COUNT [1]: 865 x10E3/uL | ALANINE AMINOTRANSFERASE [1]: 51.67 u/L | ALBUMIN [1]: 3.97 G/DL | ALKALINE PHOSPHATASE [1]: 351.17 u/L | ASPARTATE AMINOTRANSFERASE [1]: 82.33 u/L | BLOOD UREA NITROGEN [1]: 15.17 mg/dL | CARBON DIOXIDE [1]: 34.5 mmol/L | CHLORIDE [1]: 100 MEQ/L | CHOLESTEROL [1]: 80.33 mg/dL | CREATINE PHOSPHOKINASE [1]: 316.5 u/L | CREATININE [1]: 0.17 mg/dL | GLUCOSE [1]: 149.17 mg/dL | LACTATE DEHYDROGENASE [1]: 105.67 u/L | LIPASE [1]: 9.5 u/L | PHOSPHORUS [1]: 10.87 mg/dL | POTASSIUM [1]: 5.47 MEQ/L | SODIUM [1]: 144.2 MEQ/L | TOTAL BILIRUBIN [1]: 0.2 mg/dL | TOTAL PROTEIN [1]: 5.83 G/DL | URIC ACID [1]: 0.83 mg/dL | ABSOLUTE BASOPHIL [2]: 0 CELLS/uL | ABSOLUTE EOSINOPHIL [2]: 0 CELLS/uL | ABSOLUTE LYMPHOCYTE [2]: 6333.5 CELLS/uL | ABSOLUTE MONOCYTE [2]: 38.83 CELLS/uL | ABSOLUTE SEGMENTED NEUTROPHIL [2]: 661 CELLS/uL | BASOPHIL [2]: 0% | EOSINOPHIL [2]: 0% | ERYTHROCYTE COUNT [2]: 5.44 x10E6/uL | HEMATOCRIT [2]: 34.17% | HEMOGLOBIN [2]: 13.22 G/DL | LEUKOCYTE COUNT [2]: 7.03 x10E3/uL | LYMPHOCYTE [2]: 90.17% | MEAN CORPUSCULAR HEMOGLOBIN [2]: 24.38 pg | MEAN CORPUSCULAR HEMOGLOBIN CONCENTRATION [2]: 38.7 G/DL | MEAN CORPUSCULAR VOLUME [2]: 62.95 fL | MONOCYTE [2]: 0.5% | NEUTROPHIL [2]: 9.33% | NUCLEATED RED BLOOD CELLS [2]: 0 /100WBC | PLATELET COUNT [2]: 924.33 x10E3/uL | ALANINE AMINOTRANSFERASE [2]: 52.5 u/L | ALBUMIN [2]: 3.97 G/DL | ALKALINE PHOSPHATASE [2]: 364.83 u/L | ASPARTATE AMINOTRANSFERASE [2]: 82.5 u/L | BLOOD UREA NITROGEN [2]: 17 mg/dL | CARBON DIOXIDE [2]: 32.33 mmol/L | CHLORIDE [2]: 99.6 MEQ/L | CHOLESTEROL [2]: 75.83 mg/dL | CREATINE PHOSPHOKINASE [2]: 419 u/L | CREATININE [2]: 0.21 mg/dL | GLUCOSE [2]: 155 mg/dL | LACTATE DEHYDROGENASE [2]: 111.5 u/L | LIPASE [2]: 11.33 u/L | PHOSPHORUS [2]: 10.32 mg/dL | POTASSIUM [2]: 5.37 MEQ/L | SODIUM [2]: 144.64 MEQ/L | TOTAL BILIRUBIN [2]: 0.18 mg/dL | TOTAL PROTEIN [2]: 5.98 G/DL | URIC ACID [2]: 0.62 mg/dL | ABSOLUTE BASOPHIL [3]: 0 CELLS/uL | ABSOLUTE EOSINOPHIL [3]: 50 CELLS/uL | ABSOLUTE LYMPHOCYTE [3]: 6489 CELLS/uL | ABSOLUTE MONOCYTE [3]: 75.67 CELLS/uL | ABSOLUTE SEGMENTED NEUTROPHIL [3]: 285.33 CELLS/uL | BASOPHIL [3]: 0% | EOSINOPHIL [3]: 0.67% | ERYTHROCYTE COUNT [3]: 5.18 x10E6/uL | HEMATOCRIT [3]: 30.77% | HEMOGLOBIN [3]: 12.07 G/DL | LEUKOCYTE COUNT [3]: 6.9 x10E3/uL | LYMPHOCYTE [3]: 94.33% | MEAN CORPUSCULAR HEMOGLOBIN [3]: 23.3 pg | MEAN CORPUSCULAR HEMOGLOBIN CONCENTRATION [3]: 39.2 G/DL | MEAN CORPUSCULAR VOLUME [3]: 59.47 fL | MONOCYTE [3]: 1% | NEUTROPHIL [3]: 4% | NUCLEATED RED BLOOD CELLS [3]: 0.33 /100WBC | PLATELET COUNT [3]: 1561 x10E3/uL | ALANINE AMINOTRANSFERASE [3]: 52.67 u/L | ALBUMIN [3]: 4.03 G/DL | ALKALINE PHOSPHATASE [3]: 301.33 u/L | ASPARTATE AMINOTRANSFERASE [3]: 100 u/L | BLOOD UREA NITROGEN [3]: 13.67 mg/dL | CARBON DIOXIDE [3]: 35.67 mmol/L | CHLORIDE [3]: 98 MEQ/L | CHOLESTEROL [3]: 80.67 mg/dL | CREATINE PHOSPHOKINASE [3]: 355.67 u/L | CREATININE [3]: 0.15 mg/dL | GLUCOSE [3]: 138.33 mg/dL | LACTATE DEHYDROGENASE [3]: 108.33 u/L | LIPASE [3]: 9 u/L | PHOSPHORUS [3]: 10.47 mg/dL | POTASSIUM [3]: 5.91 MEQ/L | SODIUM [3]: 142.8 MEQ/L | TOTAL BILIRUBIN [3]: 0.17 mg/dL | TOTAL PROTEIN [3]: 6 G/DL | URIC ACID [3]: 0.5 mg/dL | ABSOLUTE BASOPHIL [4]: 0 CELLS/uL | ABSOLUTE EOSINOPHIL [4]: 15.67 CELLS/uL | ABSOLUTE LYMPHOCYTE [4]: 5856.67 CELLS/uL | ABSOLUTE MONOCYTE [4]: 77.33 CELLS/uL | ABSOLUTE SEGMENTED NEUTROPHIL [4]: 217 CELLS/uL | BASOPHIL [4]: 0% | EOSINOPHIL [4]: 0.33% | ERYTHROCYTE COUNT [4]: 4.27 x10E6/uL | HEMATOCRIT [4]: 27.3% | HEMOGLOBIN [4]: 10.7 G/DL | LEUKOCYTE COUNT [4]: 6.17 x10E3/uL | LYMPHOCYTE [4]: 94% | MEAN CORPUSCULAR HEMOGLOBIN [4]: 25.1 pg | MEAN CORPUSCULAR HEMOGLOBIN CONCENTRATION [4]: 39.17 G/DL | MEAN CORPUSCULAR VOLUME [4]: 64.03 fL | MONOCYTE [4]: 1.33% | NEUTROPHIL [4]: 4.33% | NUCLEATED RED BLOOD CELLS [4]: 0 /100WBC | PLATELET COUNT [4]: 1370.67 x10E3/uL | ALANINE AMINOTRANSFERASE [4]: 42 u/L | ALBUMIN [4]: 3.8 G/DL | ALKALINE PHOSPHATASE [4]: 313 u/L | ASPARTATE AMINOTRANSFERASE [4]: 132.33 u/L | BLOOD UREA NITROGEN [4]: 18.67 mg/dL | CARBON DIOXIDE [4]: 29.67 mmol/L | CHLORIDE [4]: 99.67 MEQ/L | CHOLESTEROL [4]: 65 mg/dL | CREATINE PHOSPHOKINASE [4]: 254 u/L | CREATININE [4]: 0.18 mg/dL | GLUCOSE [4]: 187.33 mg/dL | LACTATE DEHYDROGENASE [4]: 136.67 u/L | LIPASE [4]: 9 u/L | PHOSPHORUS [4]: 10.8 mg/dL | POTASSIUM [4]: 5.21 MEQ/L | SODIUM [4]: 143.2 MEQ/L | TOTAL BILIRUBIN [4]: 0.2 mg/dL | TOTAL PROTEIN [4]: 5.4 G/DL | URIC ACID [4]: 0.73 mg/dL
